Reference: PubChem BioAssay (NCI)
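Cultured in 96-well plates, cells were exposed to test compound for 48 hours across five concentrations. GI50 = concentration required for 50% inhibition of growth. The concentration for full growth arrest is given as TGI.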

How the values were obtained:
Assay in all cases: NCI-60 cell line screen, 48 h
786-0 renal = test system: 786-0 renal
A498 renal = test system: A498 renal
A549 NSCLC = test system: A549 NSCLC
ACHN renal = test system: ACHN renal
BT-549 breast = test system: BT-549 breast
CAKI-1 renal = test system: CAKI-1 renal
CCRF-CEM leukemia = test system: CCRF-CEM leukemia
COLO 205 colon = test system: COLO 205 colon
DU-145 prostate = test system: DU-145 prostate
EKVX NSCLC = test system: EKVX NSCLC
HCC-2998 colon = test system: HCC-2998 colon
HCT-116 colon = test system: HCT-116 colon
HCT-15 colon = test system: HCT-15 colon
HL-60(TB) leukemia = test system: HL-60(TB) leukemia
HOP-62 NSCLC = test system: HOP-62 NSCLC
HOP-92 NSCLC = test system: HOP-92 NSCLC
HS 578T breast = test system: HS 578T breast
HT29 colon = test system: HT29 colon
IGROV1 ovarian = test system: IGROV1 ovarian
K-562 leukemia = test system: K-562 leukemia
KM12 colon = test system: KM12 colon
LOX IMVI melanoma = test system: LOX IMVI melanoma
M14 melanoma = test system: M14 melanoma
MCF7 breast = test system: MCF7 breast
MDA-MB-231 breast = test system: MDA-MB-231 breast
MDA-MB-435 = test system: MDA-MB-435
MOLT-4 leukemia = test system: MOLT-4 leukemia
NCI-H226 lung = test system: NCI-H226 lung
NCI-H23 lung = test system: NCI-H23 lung

CC(C)(C)c1ccc(C(=O)Nc2sc3c(c2C#N)CCC(=O)C3)cc1
GI50 (786-0 renal): 769 nM | GI50 (A498 renal): 1660 nM | TGI (A498 renal): 5580 nM | GI50 (A549 NSCLC): 980 nM | TGI (A549 NSCLC): > 100000 nM | GI50 (ACHN renal): 237 nM | TGI (ACHN renal): 641 nM | GI50 (BT-549 breast): 338 nM | TGI (BT-549 breast): 16800 nM | GI50 (CAKI-1 renal): 235 nM | TGI (CAKI-1 renal): 793 nM | GI50 (CCRF-CEM leukemia): 69.7 nM | TGI (CCRF-CEM leukemia): > 100000 nM | GI50 (COLO 205 colon): 328 nM | TGI (COLO 205 colon): 944 nM | GI50 (DU-145 prostate): 5930 nM | TGI (DU-145 prostate): > 100000 nM | GI50 (EKVX NSCLC): 1130 nM | TGI (EKVX NSCLC): > 100000 nM | GI50 (HCC-2998 colon): 1250 nM | TGI (HCC-2998 colon): > 100000 nM | GI50 (HCT-116 colon): 122 nM | GI50 (HCT-15 colon): 281 nM | TGI (HCT-15 colon): 3400 nM | GI50 (HL-60(TB) leukemia): 505 nM | TGI (HL-60(TB) leukemia): 1950 nM | GI50 (HOP-62 NSCLC): 1240 nM | TGI (HOP-62 NSCLC): > 100000 nM | GI50 (HOP-92 NSCLC): 1210 nM | TGI (HOP-92 NSCLC): 4760 nM | GI50 (HS 578T breast): 339 nM | TGI (HS 578T breast): > 20500 nM | GI50 (HT29 colon): 505 nM | TGI (HT29 colon): 3830 nM | GI50 (IGROV1 ovarian): 657 nM | TGI (IGROV1 ovarian): > 20400 nM | GI50 (K-562 leukemia): 87.4 nM | TGI (K-562 leukemia): > 71400 nM | GI50 (KM12 colon): 418 nM | TGI (KM12 colon): > 100000 nM | GI50 (LOX IMVI melanoma): 262 nM | GI50 (M14 melanoma): 412 nM | TGI (M14 melanoma): > 83600 nM | GI50 (MCF7 breast): 320 nM | GI50 (MDA-MB-231 breast): 746 nM | TGI (MDA-MB-231 breast): 3000 nM | GI50 (MDA-MB-435): 873 nM | TGI (MDA-MB-435): 4820 nM | GI50 (MOLT-4 leukemia): 324 nM | TGI (MOLT-4 leukemia): > 100000 nM | GI50 (NCI-H226 lung): 991 nM | TGI (NCI-H226 lung): 5740 nM | GI50 (NCI-H23 lung): 443 nM | TGI (NCI-H23 lung): > 100000 nM
